Molecular target: T1, LXRβ (Homo sapiens, UniProt P55055)
T1 construct: Co-transfection expression plasmids, comprising full-length LXRα (pCMX-h LXRα[…] or LXRβ (pCMX-hLXRβ)); expressed in transfected cells; host or cells: CV-1 African Green Monkey Kidney Cells
T1 sequence (P55055 1-460): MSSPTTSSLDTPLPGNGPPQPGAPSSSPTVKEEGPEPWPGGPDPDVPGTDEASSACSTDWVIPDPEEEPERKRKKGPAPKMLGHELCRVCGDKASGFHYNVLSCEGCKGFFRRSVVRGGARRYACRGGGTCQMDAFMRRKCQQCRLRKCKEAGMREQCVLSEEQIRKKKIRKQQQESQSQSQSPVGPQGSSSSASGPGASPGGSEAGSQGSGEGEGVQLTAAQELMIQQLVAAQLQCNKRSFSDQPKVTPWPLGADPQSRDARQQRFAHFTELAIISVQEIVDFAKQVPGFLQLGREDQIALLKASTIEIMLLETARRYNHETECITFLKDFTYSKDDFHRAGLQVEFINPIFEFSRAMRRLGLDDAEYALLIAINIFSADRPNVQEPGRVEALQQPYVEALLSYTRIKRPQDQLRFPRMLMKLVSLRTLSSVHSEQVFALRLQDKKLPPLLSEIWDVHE
T1 sequence (P19793 1-462 partner): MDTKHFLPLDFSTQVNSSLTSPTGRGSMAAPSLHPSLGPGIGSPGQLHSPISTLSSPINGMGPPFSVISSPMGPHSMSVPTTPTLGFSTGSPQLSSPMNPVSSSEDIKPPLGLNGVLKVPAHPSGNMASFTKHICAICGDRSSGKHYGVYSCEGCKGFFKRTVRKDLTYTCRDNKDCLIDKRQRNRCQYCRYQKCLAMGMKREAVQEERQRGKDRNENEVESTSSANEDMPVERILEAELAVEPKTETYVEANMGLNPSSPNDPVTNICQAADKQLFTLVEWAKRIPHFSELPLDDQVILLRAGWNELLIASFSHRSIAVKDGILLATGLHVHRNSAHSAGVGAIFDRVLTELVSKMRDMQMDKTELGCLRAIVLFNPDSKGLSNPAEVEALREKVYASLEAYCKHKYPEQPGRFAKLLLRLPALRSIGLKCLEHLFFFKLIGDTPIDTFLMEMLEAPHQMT
Test: Co-transfection assay (LXRE luciferase reporter), LXRβ
Assay type: cell-based
Parameters: % Efficacy: concentration or dose not given beside the values
Conditions: for EC50: CV-1 cells transfected with pCMX-hLXRβ and LXREx1-Tk-Luciferase, 20 hours incubation; for Emax: read-out: % Efficacy
Outline: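 Cell-based LXRβ agonism measured as LXRE-luciferase induction in transiently transfected CV-1 cells after 20 h treatment. Potency is the curve-fit EC50; efficacy is expressed as percent of a full-agonist control's maximal response.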

[1] = LXRβ co-transfection, relative to high control 1-(2,4-difluorobenzyl)-2-oxo-6-(4-phenoxyphenyl)-4-(trifluoromethyl)-1,2-dihydropyridine-3-carbonitrile

Row | EC50 [µM] | Emax [1] [%] | % Efficacy [1] [%] | SMILES
1 | 0.215 | 82 |  | Cc1cc(OC(F)(F)F)ccc1-c1cnnn1-c1cc(-c2cccc(S(C)(=O)=O)c2)ccc1-n1cc(C(F)(F)F)nc1C [Example 57, 1-{3′-(methylsulfonyl)-4-[2-methyl-4-(trifluoromethyl)-1H-imidazol-1-yl]biphenyl-3-yl}-5-{2-methyl-4-[(trifluoromethyl)oxy]phenyl}-1H-1,2,3-triazole]
2 | 0.187 | 53 |  | Cc1nc(-c2cc(-c3cccc(S(C)(=O)=O)c3)ccc2-n2cc(C(F)(F)F)nc2C)c(-c2ccc(OC(F)F)c(OC(F)F)c2)o1 [Example 392, 5-(3,4-bis(difluoromethoxy)ohenyl)-2-methyl-4-(4-(2-methyl-4-(trifluoromethyl)-1H-imidazol-1-yl)-3′-(methylsulfonyl)biphenyl-3-yl)oxazole]
3 | 0.484 | 109 |  | Cc1nc(C(F)(F)F)cn1-c1ccc(-c2cc(F)cc(S(C)(=O)=O)c2)cc1-n1nncc1-c1ccc(OC(F)(F)F)cc1 [Example 91, 1-{3′-fluoro-5′-(methylsulfonyl)-4-[2-methyl-4-(trifluoromethyl)-1H-imidazol-1-yl]biphenyl-3-yl}-5-{4-[(trifluoromethyl)oxy]phenyl}-1H-1,2,3-triazole]
4 | 0.838 |  | 33 | Cc1nc(-c2cc(-c3cccc(S(C)(=O)=O)c3)ccc2-n2cc(C(C)O)nc2C)c(-c2ccc3c(c2)OC(F)(F)O3)o1 (single isomer, unassigned) [Example 372, 1-(1-(3-(5-(2,2-difluorobenzo[d][1,3]dioxol-5-yl)-2-methyloxazol-4-yl)-3′-(methylsulfonyl)-[1,1′-biphenyl]-4-yl)-2-methyl-1H-imidazol-4-yl) ethanol]
5 | 0.04 | 95 |  | Cc1nc(-c2cc(-c3cccc(S(C)(=O)=O)c3)ccc2-n2cc(C(F)(F)F)nc2C)c(-c2ccc3c(c2)OC(F)(F)O3)o1 [Example 493, 5-(2,2-difluorobenzo[d][1,3]dioxol-5-yl)-2-methyl-4-(4-(2-methyl-4-(trifluoromethyl)-1H-imidazol-1-yl)-3′-(methylsulfonyl)biphenyl-3-yl)oxazole]
6 | 0.087 | 76 |  | Cc1nc(-c2cc(-c3cccc(S(C)(=O)=O)c3)ccc2-n2cc(C(F)(F)F)nc2C)c(-c2ccc(Cl)c(F)c2)o1 [Example 498, 5-(4-chloro-3-fluorophenyl)-2-methyl-4-(4-(2-methyl-4-(trifluoromethyl)-1H-imidazol-1-yl)-3′-(methylsulfonyl)biphenyl-3-yl)oxazole]
7 | 0.164 | 105 |  | Cc1nc(C(F)(F)F)cn1-c1ccc(-c2cccc(S(C)(=O)=O)c2)cc1-n1nncc1-c1ccc(OC(F)(F)F)cc1 [Example 49, 1-{3′-(methylsulfonyl)-4-[2-methyl-4-(trifluoromethyl)-1H-imidazol-1-yl]biphenyl-3-yl}-5-{4-[(trifluoromethyl)oxy]phenyl}-1H-1,2,3-triazole]
8 | 0.782 | 73 |  | Cc1nc(C(F)(F)F)cn1-c1cc(F)c(-c2cccc(S(C)(=O)=O)c2)cc1-n1nncc1-c1ccc(Cl)cc1Cl [Example 101, 5-(2,4-dichlorophenyl)-1-{6-fluoro-3′-(methylsulfonyl)-4-[2-methyl-4-(trifluoromethyl)-1H-imidazol-1-yl]biphenyl-3-yl}-1H-1,2,3-triazole]
9 | 0.118 | 92 |  | Cc1nc(-c2cc(-c3cc(F)c(CO)c(S(C)(=O)=O)c3)ccc2-n2cc(C(F)(F)F)nc2C)c(-c2ccc(OCC(F)F)c(F)c2)o1 [Example 426, (3′-(5-(4-(2,2-difluoroethoxy)-3-fluorophenyl)-2-methyloxazol-4-yl)-3-fluoro-4′-(2-methyl-4-(trifluoromethyl)-1H-imidazol-1-yl)-5-(methylsulfonyl)biphenyl-4-yl)methanol]
10 | 2.27 | 85 |  | Cc1nc(C(=O)C(C)C)cn1-c1ccc(-c2cc(F)c(CO)c(S(C)(=O)=O)c2)cc1-n1nncc1-c1ccc(OC(F)(F)F)cc1 [Example 235, 1-(1-(3′-fluoro-4′-(hydroxymethyl)-5′-(methylsulfonyl)-3-(5-(4-(trifluoromethoxy)phenyl)-1H-1,2,3-triazol-1-yl)-[1,1′-biphenyl]-4-yl)-2-methyl-1H-imidazol-4-yl)-2-methylpropan-1-one]
11 | 1.6 | 61 |  | Cc1nc(C(F)F)cn1-c1ccc(-c2cccc(S(C)(=O)=O)c2)cc1-n1nncc1-c1ccc(Cl)cc1Cl [Example 163, 5-(2,4-dichlorophenyl)-1-{4-[4-(difluoromethyl)-2-methyl-1H-imidazol-1-yl]-3′-(methylsulfonyl)biphenyl-3-yl}-1H-1,2,3-triazole]
12 | 0.649 | 103 |  | Cc1nc(C(F)(F)F)cn1-c1ccc(-c2cccc(S(C)(=O)=O)c2)cc1-n1nncc1-c1ccc(F)c(Cl)c1 [Example 33, 5-(3-chloro-4-fluorophenyl)-1-{3′-(methylsulfonyl)-4-[2-methyl-4-(trifluoromethyl)-1H-imidazol-1-yl]biphenyl-3-yl}-1H-1,2,3-triazole]
13 | 0.015 | 79 |  | Cc1nc(-c2cc(-c3cc(F)c(CO)c(S(C)(=O)=O)c3)ccc2-n2cc(C(F)(F)F)nc2C)c(-c2ccc(OC(F)F)nc2)o1 [Example 385, (3′-(5-(6-(difluoromethoxy)pyridin-3-yl)-2-methyloxazol-4-yl)-3-fluoro-4′-(2-methyl-4-(trifluoromethyl)-1H-imidazol-1-yl)-5-(methylsulfonyl)biphenyl-4-yl)methanol]
14 | 0.283 | 62 |  | Cc1nc(C(F)(F)F)cn1-c1ccc(-c2cc(Cl)c(CO)c(S(C)(=O)=O)c2)cc1-n1nncc1-c1ccc(Cl)cc1Cl [Example 18, {3-chloro-3′-[5-(2,4-dichlorophenyl)-1H-1,2,3-triazol-1-yl]-5-(methylsulfonyl)-4′-[2-methyl-4-(trifluoromethyl)-1H-imidazol-1-yl]biphenyl-4-yl}methanol]
15 | 0.21 | 87 |  | Cc1nc(C(F)(F)F)cn1-c1ccc(-c2cccc(S(=O)(=O)N(C)C)c2)cc1-n1nncc1-c1ccc(OC(F)(F)F)cc1 [Example 214, N,N-dimethyl-4′-(2-methyl-4-(trifluoromethyl)-1H-imidazol-1-yl)-3′-(5-(4-(trifluoromethoxy)phenyl)-1H-1,2,3-triazol-1-yl)-[1,1′-biphenyl]-3-sulfonamide]
16 | 0.405 | 111 |  | Cc1nc(C(F)(F)F)cn1-c1ccc(-c2cccc(C(C)(C)C(N)=O)c2)cc1-c1cnnn1-c1ccc(OC(F)(F)F)cc1 [Example 241, 2-methyl-2-{4′-[2-methyl-4-(trifluoromethyl)-1H-imidazol-1-yl]-3′-(1-{4-[(trifluoromethyl)oxy]phenyl}-1H-1,2,3-triazol-5-yl)biphenyl-3-yl}propanamide]
17 | 1.27 | 77 |  | Cc1nc(C(F)(F)F)cn1-c1c(F)cc(-c2cccc(S(=O)(=O)NCCO)c2)cc1-n1nncc1-c1ccc(OC(F)(F)F)cc1 [Example 208, 3′-fluoro-N-(2-hydroxyethyl)-4′-[2-methyl-4-(trifluoromethyl)-1H-imidazol-1-yl]-5′-(5-{4-[(trifluoromethyl)oxy]phenyl}-1H-1,2,3-triazol-1-yl)biphenyl-3-sulfonamide]
18 | 0.24 | 45 |  | COc1ncc(-c2oc(C)nc2-c2cc(-c3cc(F)c(CO)c(S(C)(=O)=O)c3)ccc2-n2cc(Cl)nc2C)cc1F [Example 465, (4′-(4-chloro-2-methyl-1H-imidazol-1-yl)-3-fluoro-3′-(5-(5-fluoro-6-methoxypyridin-3-yl)-2-methyloxazol-4-yl)-5-(methylsulfonyl)biphenyl-4-yl)methanol]
19 | 0.201 | 83 |  | CCS(=O)(=O)c1cccc(-c2ccc(-n3cc(C(F)(F)F)nc3C)c(-n3nncc3C(C)c3ccc(C)cc3)c2)c1 (centres unmarked) [Example 107, 1-{3′-(ethylsulfonyl)-4-[2-methyl-4-(trifluoromethyl)-1H-imidazol-1-yl]biphenyl-3-yl}-5-[1-(4-methylphenyl)ethyl]-1H-1,2,3-triazole]

Source: US9834542B2, “LXR modulators” (BRISTOL-MYERS SQUIBB COMPANY, priority 2013, dated 2017)
